According to patent publication US7572606B1 (Nereus Pharmaceuticals, Inc., priority 2005, dated 2009):
Read-outs that look alike come from different tables or passages of the source.

Assays:
[1] = test system: B16-F10; assay: Cell growth inhibition, resazurin, 48 h; assay type: cell-based, mouse; conditions: B16-F10, 48 h drug exposure
Procedure: RPMI 8226 (CCL-155), HT-29 (HTB-38), and B16-F10 (CRL-6475) cells were purchased from ATCC. RPMI 8226 cells were maintained in RPMI 1640 media supplemented with 10% (v/v) FBS, 2 mM L-glutamine, 1 mM sodium pyruvate and Penicillin/Streptomycin at 100 IU/ml and 100 μg/ml, respectively. HT-29 cells were maintained in McCoys 5A supplemented with 10% (v/v) FBS, 2 mM L-glutamine, 1 mM sodium pyruvate, 1% (v/v) non-essential amino acids, 10 mM HEPES and Penicillin/Streptomycin at 100 IU/ml and 100 μg/ml, respectively. B16-F10 cells were maintained in DMEM supplemented with 10% (v/v) FBS, 2 mM L-glutamine, 10 mM HEPES and Penicillin/Streptomycin at 100 IU/ml and 100 μg/ml, respectively.
RPMI 8226 cells were seeded at 2×10^4 cells/well in 90 μl RPMI media containing 10% (v/v) FBS or 1% (v/v) FBS into 96 well black-walled, clear-bottom tissue culture plates. […] Formulae II-16, II-17 and Formula II-18 were serially diluted in media containing 1% or 10% FBS and added in triplicate to the test wells. […] The final concentration of Formula II-18 ranged from 2 μM to 630 pM.

[2] = test system: DU 145; assay: Cell growth inhibition, resazurin, 48 h; assay type: cell-based, human
[3] = test system: HEK293; assay: Cell growth inhibition, resazurin, 48 h; assay type: cell-based; conditions: Homo sapiens; HEK293, 48 h drug exposure
[4] = molecular target: Thrombin (Homo sapiens, UniProt P00734); assay: Specificity: inhibition of other proteolytic enzymes; assay type: biochemical
[5] = test system: NF-κB/Luc 293 cells; assay: Viability of reporter cells, resazurin, 24 hr; assay type: cell-based, human; conditions: at the EC50 concentration of the luciferase assay
[6] = test system: Caspase-3 activity in Jurkat cells; assay: Caspase-3 activity assay (EnzChek); assay type: cell-based, human; conditions: EC50 concentration, 19 hours
Procedure: Jurkat cells were plated at 2×10^6 cells/3 mL per well in a 6-well plate and incubated at 37° C., 5% (v/v) CO2 and 95% (v/v) humidity. […] Bhalla, et al., Blood 82:3133 (1993). […] Cells treated with 0.25% DMSO served as the negative control. The cells were collected by centrifugation and the media removed. Cell pellets were processed for the Caspase-3 activity assay as described in the manufacturer's protocol (EnzChek Caspase-3 Assay Kit from Molecular Probes (E-13183; see Appendix G, which form a part of this application and is also available at hypertext transfer protocol on the worldwide web at “probes.com/media/pis/mp13183.pdf.”. In brief, cell pellets were lysed on ice, mixed with the EnzChek Caspase-3 components in a 96-well plate, and then incubated in the dark for 30 minutes prior to reading fluorescence of cleaved benzyloxycarbonyl-DEVD-AMC using a Packard Fusion with λex=485 nm and λem=530 nm filters. Protein concentrations for lysates were determined using the BCA Protein Assay Kit (Pierce) and these values were used for normalization.

[7] = test system: PARP in Jurkat cells; assay: PARP cleavage, western blot; assay type: cell-based, human; conditions: 100 nM Salinosporamide A 2-24 hrs; […] nM Staurosporine 4 hrs
[8] = Maximum Tolerated Dose (MTD) determination; assay type: in vivo, female BALB/c mice
From the text: In vivo studies were designed to determine the MTD of Salinosporamide A when administered intravenously to female BALB/c mice.
Animals were observed daily for clinical signs and were weighed individually twice weekly until the end of the experiment (maximum of 14 days after the last day of dosing).

[9] = test system: chymotrypsin-like proteasome activity in packed whole blood lysate; assay: Whole blood proteasome activity after dosing (PWBL assay); assay type: in vivo, male Swiss-Webster mice; conditions: mice
Procedure: In brief, frozen whole blood samples were thawed on ice for one hour, and resuspended in 700 μL of ice cold 5 mM EDTA, pH 8.0 in order to lyse the cells by hypotonic shock. This represents approximately 2-3 times the volume of the packed whole blood cells. Lysis was allowed to proceed for one hour, and the cellular debris was removed by centrifugation at 14,000×g for 10 minutes. The supernatant (Packed Whole Blood Lysate, PWBL) was transferred to a fresh tube, and the pellet discarded. Protein concentration of the PWBL was determined by BCA assay (Pierce) using BSA as a standard.
Proteasome activity was determined by measuring the hydrolysis of a fluorogenic substrate specific for the chymotrypsin-like activity of proteasomes (suc-LLVY-AMC, Bachem Cat. I-1395). […] The rate of hydrolysis in this system is linear for at least one hour. The hydrolysis rate of each sample is then normalized to relative fluorescent units per milligram of protein (RFU/mg).
The vehicle control consisted of 2% DMSO in 10% solutol. […] Packed whole blood cells were collected by centrifugation, washed with PBS, and re-centrifuged. All samples were stored at −80° C. prior to the evaluation of the proteasome activity.
Male Swiss Webster mice (12/group weighing 20-25 g) were injected with LPS (2 mg/kg) by the i.p. route. […]

[10] = test system: RAW264.7 cells; conditions: 12 nM, compound alone
[11] = molecular target: T1, chymotrypsin-like activity of rabbit muscle 20S proteasome (Oryctolagus cuniculus, UniProt G1T4Q9); assay: In vitro inhibition of 20S proteasome, suc-LLVY-AMC
T1 sequence (G1T4Q9 1-263): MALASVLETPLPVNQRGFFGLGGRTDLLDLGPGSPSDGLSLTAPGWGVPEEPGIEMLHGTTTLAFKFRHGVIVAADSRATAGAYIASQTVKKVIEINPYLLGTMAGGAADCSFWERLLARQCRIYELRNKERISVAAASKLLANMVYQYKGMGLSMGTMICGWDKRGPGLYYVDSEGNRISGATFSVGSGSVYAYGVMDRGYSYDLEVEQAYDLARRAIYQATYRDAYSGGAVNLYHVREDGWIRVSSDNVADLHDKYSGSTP

Row | Structure (SMILES) | EC50 [1] [nM] | EC50 ([1]; Mus musculus, B16-F10, 48 h) [nM] | % cytotoxicity ([2]; DU 145) [%] | EC50 ([2]; Homo sapiens, DU 145, 48 h drug exposure) [nM] | EC50 [3] [nM] | EC50 [4] [µM] | cell viability [5] | Caspase-3 activity [6] | PARP cleavage [7] | well tolerated dose ([8]; i.v. daily for five consecutive days) | tolerated dose ([8]; single intravenous dose) | proteasomal activity in PWBL ([9]; i.v. or oral, blood 90 min after administration) | activity upon oral administration (PWBL proteasome) ([9]; oral) | viability [10] [%] | EC50 [11] [nM] | EC50 ([11]; read-out: EC50 Chymotrypsin-like, purified rabbit 20S proteasome, suc-LLVY-AMC) [nM]
1 | C[C@@]12OC(=O)[C@]1([C@@H](O)[C@@H]1C=CCCC1)NC(=O)[C@@H]2CCCl [Formula II-16, Salinosporamide A] | 47 ± 20 | 33 | 75 ± 4 | 37 ± 10 | 47 | > 200 | did not affect cell viability | activation of Caspase-3 | cleavage of PARP within the Jurkat cells in a time-dependent fashion | up to 0.1 mg/kg | up to 0.25 mg/kg | profound decrease in proteasomal activity in PWBL | active upon oral administration | 96 | – | –
2 | C[C@H]1C(=O)N[C@@]2([C@@H](O)[C@@H]3C=CCCC3)C(=O)O[C@@]12C [Formula II-20] | – | – | – | – | – | – | – | – | – | – | – | – | – | – | 2 to 11 | 7.7 ± 3
